Experimental data: patent US12162858B2, “Quinoline derivatives as inhibitors of AXL/MER RTK and CSF1R” (QURIENT CO., LTD., priority 2018, dated 2024)

Assays:
[1] = test system: EMT-6 tumor cells; test: EMT-6 syngeneic tumor model; assay type: in vivo, BALB/c mice; details: oral, daily; vs compound 27 of WO 2016/166250 or vehicle; FIG. 1
Description: (§1) FIGS. 1 and 2 show comparison data of compound 4 of the present invention (marked with two asterisks** and diamond) vs. compound 27 of WO2016/166250 (marked with single asterisk* and open square) in mouse models EMT-6 and MV4-11; EMT-6 measures triple inhibition of Axl, Mer and CSF1R. MV4-11 measures inhibition of Axl.
In case of CSF1R, it mediates tumorigenesis in tumor-immune microenvironments and is expressed on myeloid cell tumor-associated macrophages (TAMs); elevated serum CSF1, increased numbers of TAMs in tumors, and high expression of tissue CSF1 and/or CSF1R are associated with poor prognosis in patients with various cancers. […] Therefore, EMT-6 is a suitable model for immune-oncology drug efficacy effects through changes in target immune cells.
BALB/c mice (6-8 week female, Beijing Vital River Laboratory Animal Technology Co., Ltd.) were inoculated subcutaneously at the upper right flank with EMT-6 tumor cells (1×10^6) in 0.1 mL of PBS for tumor development. […] Tumor volumes were measured every 3 days with a digital caliper, and were calculated using the formula: V=0.5a×b^2 where a and b are the long and short diameters of the tumor in mm, respectively. Body weight was measured every 3 days. […] Death and observed clinical signs were recorded on the basis of the numbers of animals within each subset. […]

[2] = test system: MV4-11 tumor cells; test: MV4-11 xenograft tumor model; assay type: in vivo, BALB/c nude mice; details: oral, daily; vs compound 27 of WO 2016/166250 or vehicle; FIG. 2
Description: as §1
High expression of Axl or Gas6 in acute myeloid leukemia (AML) patients is prognostic for poor survival outcome. AML cells induce expression and secretion of the Axl ligand Gas6 by bone marrow-derived stromal cells (BMDSCs). Gas6 in turn mediates proliferation, survival, and chemoresistance of Axl-expressing AML cells. This Gas6/Axl paracrine axis between AML cells and BMDSCs establishes a chemoprotective tumor cell niche that can be abrogated by Axl-targeting approaches. […]
BALB/c nude mice (6-8 week female, Shanghai SIPPR/BK Laboratory Animal Co., LTD.) were inoculated subcutaneously at the upper right flank with MV4-11 tumor cells (1×10^7) in 0.1 mL of PBS+Matrigel (1:1) for tumor development. […] Tumor volumes were measured every 3 days with a digital caliper, and were calculated using the formula: V=0.5a×b^2 where a and b are the long and short diameters of the tumor in mm, respectively. Body weight was measured every 3 days. […] Death and observed clinical signs were recorded on the basis of the numbers of animals within each subset. […]

Which “tumor growth delay, EMT-6 syngeneic model” value [1] does the source give for `CCn1cc(OCC(F)(F)F)c(C(=O)Nc2ccc(Oc3ccnc4cc(OC)c(OC)cc34)cn2)n1` [Compound 4] here?
Its value is “delay tumor growth to a significantly larger extent”.

And the “tumor growth delay, MV4-11 xenograft model” value [2]?
Its value is “delay tumor growth to a drastically larger extent”.
